{
  "source": "patent US20090143279A1",
  "about": "(priority 2007, published 2009)",
  "key": {"reactive oxygen species": {"system": "reactive oxygen species", "assay_type": "cell-based, mouse", "conditions": "for ROS (composite Z-score): normalized score vs mock-treated (DMSO) wells"}, "nuOXPHOS transcripts": {"system": "nuOXPHOS transcripts", "assay_type": "cell-based, mouse", "conditions": "for nucOX (composite Z-score): normalized score vs mock-treated (DMSO) wells"}, "[1]": {"system": "mitochondrial membrane potential", "assay_type": "cell-based, mouse", "conditions": "for ΔΨm (composite Z-score): normalized score vs mock-treated (DMSO) wells"}, "[2]": {"system": "cellular dehydrogenase activity", "conditions": "for MTT (composite Z-score): normalized score vs mock-treated (DMSO) wells"}, "C2C12 myotubes": {"system": "C2C12 myotubes", "conditions": "for Viability (composite Z-score): normalized score vs mock-treated (DMSO) wells"}, "OXPHOS gene expression": {"system": "OXPHOS gene expression", "assay_type": "cell-based, mouse", "conditions": "for GE-HTS (composite Z-score): normalized score vs mock-treated (DMSO) wells"}, "mtOXPHOS transcripts": {"system": "mtOXPHOS transcripts", "assay_type": "cell-based, mouse", "conditions": "for mitoOX (composite Z-score): normalized score vs mock-treated (DMSO) wells"}, "cytochrome c": {"system": "cytochrome c", "assay_type": "cell-based, mouse", "conditions": "for cyt c (composite Z-score): normalized score vs mock-treated (DMSO) wells"}, "[3]": {"conditions": "composite Z-score vs DMSO wells, Conc 20 μM"}, "[4]": {"conditions": "normalized composite Z-score vs mock-treated (DMSO) wells, Conc 20 μM"}, "[5]": {"conditions": "composite Z-score vs DMSO, Conc 20 μM"}, "[6]": {"conditions": "composite Z-score vs mock-treated (DMSO) wells, Conc 20 μM"}},
  "note": "Read-outs that look alike come from different tables or passages of the source.",
  "data": [
    {"smiles": "C[C@]12CC[C@H]3[C@@H](CC[C@]4(O)C[C@@H](O)CC[C@]34C=O)[C@@]1(O)CC[C@@H]2C1=CC(=O)OC1", "note": "[strophanthidin]", "values": [
      {"measurement": "ROS", "setting": "reactive oxygen species", "result": 0.947},
      {"measurement": "ROS", "setting": "reactive oxygen species; [3]", "result": 1.582},
      {"measurement": "ROS", "setting": "reactive oxygen species; [4]", "result": 1.036},
      {"measurement": "nucOX", "setting": "nuOXPHOS transcripts", "result": "−0.729"},
      {"measurement": "nucOX", "setting": "nuOXPHOS transcripts; [3]", "result": "−0.222"},
      {"measurement": "nucOX", "setting": "nuOXPHOS transcripts; [4]", "result": "−0.525"},
      {"measurement": "ΔΨm", "setting": "[1]", "result": "−0.175"},
      {"measurement": "ΔΨm", "setting": "[1]; [3]", "result": "−1.126"},
      {"measurement": "ΔΨm", "setting": "[1]; [4]", "result": "−0.481"},
      {"measurement": "MTT", "setting": "[2]", "result": "−0.908"},
      {"measurement": "MTT", "setting": "[2]; [3]", "result": "−0.828"},
      {"measurement": "MTT", "setting": "[2]; [4]", "result": "−1.573"},
      {"measurement": "Viability", "setting": "C2C12 myotubes", "result": "−0.448"},
      {"measurement": "Viability", "setting": "C2C12 myotubes; [3]", "result": 0.028},
      {"measurement": "Viability", "setting": "C2C12 myotubes; [4]", "result": "−1.016"},
      {"measurement": "GE-HTS", "setting": "OXPHOS gene expression", "result": "−0.590"},
      {"measurement": "GE-HTS", "setting": "OXPHOS gene expression; [3]", "result": "−0.232"},
      {"measurement": "GE-HTS", "setting": "OXPHOS gene expression; [4]", "result": "−0.789"},
      {"measurement": "mitoOX", "setting": "mtOXPHOS transcripts", "result": "−0.190"},
      {"measurement": "mitoOX", "setting": "mtOXPHOS transcripts; [3]", "result": "−0.231"},
      {"measurement": "mitoOX", "setting": "mtOXPHOS transcripts; [4]", "result": "−1.094"},
      {"measurement": "cyt c", "setting": "cytochrome c", "result": 0.287},
      {"measurement": "cyt c", "setting": "cytochrome c; [3]", "result": 1.100},
      {"measurement": "cyt c", "setting": "cytochrome c; [4]", "result": 0.687}
    ]},
    {"smiles": "C[C@]12CC[C@H]3[C@@H](CC[C@]4(O)C[C@@H](O)CC[C@]34C(=O)O)[C@@]1(O)CC[C@@H]2C1=CC(=O)OC1", "note": "[strophanthidinic acid]", "values": [
      {"measurement": "ROS", "setting": "reactive oxygen species; [4]", "result": "−0.059"},
      {"measurement": "nucOX", "setting": "nuOXPHOS transcripts; [4]", "result": "−0.400"},
      {"measurement": "ΔΨm", "setting": "[1]; [4]", "result": "−0.875"},
      {"measurement": "MTT", "setting": "[2]; [4]", "result": "−1.651"},
      {"measurement": "Viability", "setting": "C2C12 myotubes; [4]", "result": "−0.745"},
      {"measurement": "GE-HTS", "setting": "OXPHOS gene expression; [4]", "result": "−0.553"},
      {"measurement": "mitoOX", "setting": "mtOXPHOS transcripts; [4]", "result": "−0.726"},
      {"measurement": "cyt c", "setting": "cytochrome c; [4]", "result": 0.166}
    ]},
    {"smiles": "[H]/N=C(/N)NS(=O)(=O)c1ccc(N)cc1", "note": "[sulfaguanidine]", "values": [
      {"measurement": "ROS", "setting": "reactive oxygen species; [3]", "result": 0.902},
      {"measurement": "nucOX", "setting": "nuOXPHOS transcripts; [3]", "result": "−0.522"},
      {"measurement": "ΔΨm", "setting": "[1]; [3]", "result": 0.217},
      {"measurement": "MTT", "setting": "[2]; [3]", "result": "−0.421"},
      {"measurement": "Viability", "setting": "C2C12 myotubes; [3]", "result": "−0.691"},
      {"measurement": "GE-HTS", "setting": "OXPHOS gene expression; [3]", "result": "−0.571"},
      {"measurement": "mitoOX", "setting": "mtOXPHOS transcripts; [3]", "result": "−0.556"},
      {"measurement": "cyt c", "setting": "cytochrome c; [3]", "result": 0.147}
    ]},
    {"smiles": "Cc1noc(NS(=O)(=O)c2ccc(N)cc2)c1C", "note": "[sulfisoxazole]", "values": [
      {"measurement": "ROS", "setting": "reactive oxygen species; [3]", "result": "−0.095"},
      {"measurement": "nucOX", "setting": "nuOXPHOS transcripts; [3]", "result": 0.239},
      {"measurement": "ΔΨm", "setting": "[1]; [3]", "result": "−0.543"},
      {"measurement": "MTT", "setting": "[2]; [3]", "result": "−0.835"},
      {"measurement": "Viability", "setting": "C2C12 myotubes; [3]", "result": "−1.895"},
      {"measurement": "GE-HTS", "setting": "OXPHOS gene expression; [3]", "result": 0.103},
      {"measurement": "mitoOX", "setting": "mtOXPHOS transcripts; [3]", "result": "−0.187"},
      {"measurement": "cyt c", "setting": "cytochrome c", "result": 0.001},
      {"measurement": "cyt c", "setting": "cytochrome c; [3]", "result": 0.649}
    ]},
    {"smiles": "COC(=O)C(C)c1ccc(C(=O)c2cccs2)cc1", "note": "(stereo not drawn) [suprofen methyl ester]", "values": [
      {"measurement": "ROS", "setting": "reactive oxygen species; [5]", "result": 0.591},
      {"measurement": "nucOX", "setting": "nuOXPHOS transcripts; [5]", "result": 0.216},
      {"measurement": "ΔΨm", "setting": "[1]; [5]", "result": 0.577},
      {"measurement": "MTT", "setting": "[2]; [5]", "result": "−1.160"},
      {"measurement": "Viability", "setting": "C2C12 myotubes; [5]", "result": 0.611},
      {"measurement": "GE-HTS", "setting": "OXPHOS gene expression; [5]", "result": 0.139},
      {"measurement": "mitoOX", "setting": "mtOXPHOS transcripts; [5]", "result": "−0.048"},
      {"measurement": "cyt c", "setting": "cytochrome c; [5]", "result": "−0.191"}
    ]},
    {"smiles": "COC(=O)[C@H](O)[C@H]1C(C)(C)[C@H](OC(C)=O)[C@@H]2CC3=C4CC(=O)O[C@@H](c5ccoc5)[C@]4(C)CC[C@@H]3[C@@]1(C)C2=O", "note": "[swietenolide-3-acetate]", "values": [
      {"measurement": "ROS", "setting": "reactive oxygen species; [6]", "result": 0.237},
      {"measurement": "nucOX", "setting": "nuOXPHOS transcripts; [6]", "result": "−1.093"},
      {"measurement": "ΔΨm", "setting": "[1]; [6]", "result": 1.006},
      {"measurement": "MTT", "setting": "[2]; [6]", "result": "−0.776"},
      {"measurement": "Viability", "setting": "C2C12 myotubes; [6]", "result": "−0.503"},
      {"measurement": "GE-HTS", "setting": "OXPHOS gene expression; [6]", "result": "−1.057"},
      {"measurement": "mitoOX", "setting": "mtOXPHOS transcripts; [6]", "result": "−0.838"},
      {"measurement": "cyt c", "setting": "cytochrome c; [6]", "result": 0.668}
    ]},
    {"smiles": "O=C(O)Cc1cc(I)c(Oc2cc(I)c(O)c(I)c2)c(I)c1", "note": "[tetrac]", "values": [
      {"measurement": "ROS (composite Z-score)", "setting": "reactive oxygen species; Conc 20 μM", "result": 2.718},
      {"measurement": "nucOX (composite Z-score)", "setting": "nuOXPHOS transcripts; Conc 20 μM", "result": 0.714},
      {"measurement": "ΔΨm (composite Z-score)", "setting": "[1]; Conc 20 μM", "result": "−1.457"},
      {"measurement": "MTT (composite Z-score)", "setting": "[2]; Conc 20 μM", "result": "−0.677"},
      {"measurement": "Viability (composite Z-score)", "setting": "C2C12 myotubes; Conc 20 μM", "result": 1.361},
      {"measurement": "GE-HTS (composite Z-score)", "setting": "OXPHOS gene expression; Conc 20 μM", "result": 0.811},
      {"measurement": "mitoOX (composite Z-score)", "setting": "mtOXPHOS transcripts; Conc 20 μM", "result": 0.898},
      {"measurement": "cyt c (composite Z-score)", "setting": "cytochrome c; Conc 20 μM", "result": 0.674}
    ]},
    {"smiles": "CCCCNc1ccc(C(=O)OCCN(C)C)cc1", "note": "[tetracaine]", "values": [
      {"measurement": "ROS", "setting": "reactive oxygen species; [3]", "result": 0.320},
      {"measurement": "nucOX", "setting": "nuOXPHOS transcripts; [3]", "result": "−0.376"},
      {"measurement": "ΔΨm", "setting": "[1]; [3]", "result": "−0.492"},
      {"measurement": "MTT", "setting": "[2]; [3]", "result": "−0.048"},
      {"measurement": "Viability", "setting": "C2C12 myotubes; [3]", "result": "−0.539"},
      {"measurement": "GE-HTS", "setting": "OXPHOS gene expression; [3]", "result": "−0.280"},
      {"measurement": "mitoOX", "setting": "mtOXPHOS transcripts; [3]", "result": "−0.034"},
      {"measurement": "cyt c", "setting": "cytochrome c", "result": "−0.536"},
      {"measurement": "cyt c", "setting": "cytochrome c; [3]", "result": 0.383}
    ]},
    {"smiles": "N#Cc1c(Cl)c(Cl)c(Cl)c(C#N)c1Cl", "note": "[tetrachloroisophthalonitrile]", "values": [
      {"measurement": "ROS (composite Z-score)", "setting": "reactive oxygen species; Conc 20 μM", "result": "−3.975"},
      {"measurement": "nucOX (composite Z-score)", "setting": "nuOXPHOS transcripts; Conc 20 μM", "result": "−3.990"},
      {"measurement": "ΔΨm (composite Z-score)", "setting": "[1]; Conc 20 μM", "result": "−4.269"},
      {"measurement": "MTT (composite Z-score)", "setting": "[2]; Conc 20 μM", "result": "−6.675"},
      {"measurement": "Viability (composite Z-score)", "setting": "C2C12 myotubes; Conc 20 μM", "result": "−5.297"},
      {"measurement": "GE-HTS (composite Z-score)", "setting": "OXPHOS gene expression; Conc 20 μM", "result": "−3.510"},
      {"measurement": "mitoOX (composite Z-score)", "setting": "mtOXPHOS transcripts; Conc 20 μM", "result": "−1.780"},
      {"measurement": "cyt c (composite Z-score)", "setting": "cytochrome c; Conc 20 μM", "result": "−5.292"}
    ]}
  ]
}
